In brackets after ≈: the same amount, converted by molar mass.
Tests used:
[1] = tested on: Escherichia coli NIHJ; assay: In vitro antibacterial activity by agar plate dilution method (Test 1); format: cell-based; conditions: Mueller-Hinton II agar, read-out: Minimum Growth Inhibitory Concentration (MIC)
Description: (§1) Antibacterial activity was measured by the agar plate dilution method, whereby the minimum growth inhibitory concentration (MIC: μg/ml) against various pathogenic bacteria was determined. The test results on the antibacterial activity of the compounds of the invention of Examples 3 and 7 against Staphylococcus aureus […], Escherichia coli NIHJ and Pseudomonas aeruginosa No. 7 are shown in Table 2. Incidentally, Compounds A and B used for comparison are compounds of Example 3 in Japanese Patent Application Kokai No. Hei 5-310740 [compounds represented by the formula (I) of the present invention, wherein R^1, R^2 and R^3 represent hydrogen atoms]. Compound A has the R configuration at the binding position of the aminomethyl group. Compound B has the S configuration at the binding position of the aminomethyl group. The medium used for the measurement was Mueller-Hinton II agar (MHA, Becton Dikinson Microbiology Systems).

[2] = tested on: Pseudomonas aeruginosa No. 7; assay: as above; format: cell-based; conditions: Mueller-Hinton II agar, read-out: Minimum Growth Inhibitory Concentration (MIC)
Description: as §1

[3] = tested on: Staphylococcus aureus 209P; assay: as above; format: cell-based; conditions: Mueller-Hinton II agar, read-out: Minimum Growth Inhibitory Concentration (MIC)
Description: as §1

[4] = tested on: Escherichia coli NIHJ; assay: In vitro antibacterial activity (Test 2); format: cell-based; conditions: Nutrient Agar Eiken, read-out: Minimum Growth Inhibitory Concentration (MIC)
Description: (§2) Antibacterial activity was measured by the agar plate dilution method, whereby the minimum growth inhibitory concentration (MIC: μg/ml) against various pathogenic bacteria was determined. The test results on the antibacterial activity of the compounds of the invention of Examples 3 and 7 against Staphylococcus aureus 209P, Escherichia coli NIHJ and Pseudomonas aeruginosa No. 7 are shown in Table 2.
(§3) The antibacterial activities of the compounds of the invention of Examples 3 and 7 and meropenem against Staphylococcus aureus 209P, Escherichia coli NIHJ and Pseudomonas aeruginosa 3719 (strain resistant to meropenem) are shown in Table 3.
(§4) The medium used for the measurement was Nutrient Agar Eiken (Eiken Chemicals Co., Ltd.).

[5] = tested on: Pseudomonas aeruginosa 3719 (strain resistant to meropenem); assay: In vitro antibacterial activity (Test 2); format: cell-based; conditions: Pseudomonas aeruginosa 3719 (resistant to meropenem); Nutrient Agar Eiken; read-out: Minimum Growth Inhibitory Concentration (MIC)
Description: as §2, §3, §4

[6] = tested on: Staphylococcus aureus 209P; assay: In vitro antibacterial activity (Test 2); format: cell-based; conditions: Nutrient Agar Eiken, read-out: Minimum Growth Inhibitory Concentration (MIC)
Description: as §2, §3, §4

[7] = tested on: Pseudomonas aeruginosa 1008; assay: In vivo antibacterial activity, treatment of infected mice (Test 3); design: species or system mice (SPF, DDY, male); conditions: Pseudomonas aeruginosa, 1008, sc, 120 h, intraperitoneal infection, subcutaneous twice (immediately and 4 h after inoculation), survival at five days, expressed as single dose, read-out: Treatment against infections, 50% effective dose (ED50)
Description: The culture of the bacterial strain to be tested was inoculated intraperitoneally to groups of mice (SPF, DDY, male), each group consisting of 7 animals. A solution of the test compound was subcutaneously administered twice in total to the mice, once immediately and once four hours after the inoculation. From the survival ratio five days after infection, the 50% effective dose (ED50 : mg/kg) was determined by the Probit method and the single dose of test compound was indicated. The test results of the compound of Example 3, compound A and Meropenem against Pseudomonas aeruginosa 1008 are shown in Table 4. Incidentally, Compound A is as described above.

[8] = Nephrotoxicity; format: in vivo; conditions: rabbits, intravenous, 200 mg/kg
Description: When the compounds of the present invention were administered to rabbits, the incorporation in to the renal cortex is relatively low.

[9] = Pharmacokinetics such as half-life in blood; conditions: in vivo
[10] = tested on: Pseudomonas aeruginosa; assay: Antibacterial activity against Pseudomonas aeruginosa compared with aminomethyl compounds A and B; format: cell-based
Description: as §1, with “culture of” for “medium used for”, “bacterial strain to be tested” for “measurement”, “inoculated intraperitoneally to groups of mice (SPF, DDY, male), each group consisting of 7 animals. A solution of the test compound was subcutaneously administered twice in total to the mice, once immediately and once four hours after the inoculation. From the survival ratio five days after infection, the 50% effective dose (ED50 : mg/kg) was determined by the Probit method and the single dose of test compound was indicated.” for “Mueller-Hinton II agar (MHA, Becton Dikinson Microbiology Systems).”

MIC [1] [µg/mL]	MIC [2] [µg/mL]	MIC [3] [µg/mL]	MIC [4] [µg/mL]	MIC [5] [µg/mL]	MIC [6] [µg/mL]	SMILES	ED50 [7] [mg/kg]	nephrotoxicity [8]	pharmacokinetic properties such as half-life in blood [9]	activity against Pseudomonas aeruginosa [10]
0.02 (≈ 0.0416 µM)	0.05 (≈ 0.104 µM)	0.02 (≈ 0.0416 µM)	≤ 0.01	0.1 (≈ 0.208 µM)	≤ 0.01	C[C@@H](O)[C@H]1C(=O)N2C(C(=O)O)=C(S[C@@H]3CN[C@H](C(=O)N4CC[C@H](CNC(=N)N)C4)C3)[C@H](C)[C@H]12 [Example 7, (1R,5S,6S)-2-[(2S,4S)-2-[(3R)-3-Guanidinomethylpyrrolidin-1-ylcarbonyl]pyrrolidin-4-ylthio]-6-[(1R)-1-hydroxyethyl]-1-methyl-1-carbapen-2-em-3-carboxylic acid]				
			≤ 0.01	6.2 (≈ 16.2 µM)	0.02 (≈ 0.0522 µM)	C[C@@H](O)[C@H]1C(=O)N2C(C(=O)O)=C(S[C@@H]3CN[C@H](C(=O)N(C)C)C3)[C@H](C)[C@H]12 [Meropenem, meropenem, reference compound]	0.72			
0.02 (≈ 0.0442 µM)	0.05 (≈ 0.11 µM)	0.02 (≈ 0.0442 µM)	≤ 0.01	0.2 (≈ 0.442 µM)	≤ 0.01	CNC[C@H]1CCN(C(=O)[C@@H]2C[C@H](SC3=C(C(=O)O)N4C(=O)[C@H]([C@@H](C)O)[C@H]4[C@H]3C)CN2)C1 [Example 3, (1R,5S,6S)-6-[(1R)-1-Hydroxyethyl]-1-methyl-2-[(2S,4S)-2-[(3R)-3-methylaminomethylpyrrolidin-1-ylcarbonyl]pyrrolidin-4-ylthio]-1-carbapen-2-em-3-carboxylic acid]	0.22	did not exhibit nephrotoxicity	excellent pharmacokinetic properties such as half-life in blood	superior activity against Pseudomonas aeruginosa

— patent publication US5977097A, “1-methylcarbapenem derivatives” (Sankyo Company Limited, priority 1996, dated 1999)
